Laboratory results: PubChem BioAssay AID2060502 (Molecular Pharmacology Branch, DTP, NCI, 2025)
pIC50: −log10 of the molar value.

Test system: 885724-159-R-J1-PDC complex spheroid viability
Test: Anticancer human tumor 885724-159-R-J1-PDC patient-derived pancreatic adenocarcinoma cell line growth inhibition [GQUAD]
Conditions: for pIC50: curve of first compound; for viability, T/C: stronger effect = lower value; active means viability on the fitted dose curve at most 10% of control; inactive means the rest
Outline: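 Multi-cell-type spheroids of tumor cells with HUVEC and mesenchymal stem cells, treated with drug combinations. Concentrations descend in half-log steps from near clinical Cmax, or from 10 microM where Cmax is unknown; viability read-out.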

[1] = second compound 0.0316 µM, first compound 0.0316 µM
[2] = second compound 0.0316 µM, first compound 0.1 µM
[3] = second compound 0.0316 µM, first compound 0.316 µM
[4] = second compound 0.0316 µM, first compound 1 µM
[5] = second compound 0.0316 µM, first compound 3.16 µM
[6] = second compound 0.0316 µM, first compound 10 µM
[7] = second compound 0.1 µM, first compound 0.0316 µM
[8] = second compound 0.1 µM, first compound 0.1 µM
[9] = second compound 0.1 µM, first compound 0.316 µM
[10] = second compound 0.1 µM, first compound 1 µM
[11] = second compound 0.1 µM, first compound 3.16 µM
[12] = second compound 0.1 µM, first compound 10 µM
[13] = second compound 0.316 µM, first compound 0.0316 µM
[14] = second compound 0.316 µM, first compound 0.1 µM
[15] = second compound 0.316 µM, first compound 0.316 µM
[16] = second compound 0.316 µM, first compound 1 µM
[17] = second compound 0.316 µM, first compound 3.16 µM
[18] = second compound 0.316 µM, first compound 10 µM
[19] = second compound 1 µM, first compound 0.0316 µM
[20] = second compound 1 µM, first compound 0.1 µM
[21] = second compound 1 µM, first compound 0.316 µM
[22] = second compound 1 µM, first compound 1 µM
[23] = second compound 1 µM, first compound 3.16 µM
[24] = second compound 1 µM, first compound 10 µM
[25] = second compound 3.16 µM, first compound 0.0316 µM
[26] = second compound 3.16 µM, first compound 0.1 µM
[27] = second compound 3.16 µM, first compound 0.316 µM
[28] = second compound 3.16 µM, first compound 1 µM
[29] = second compound 3.16 µM, first compound 3.16 µM
[30] = second compound 3.16 µM, first compound 10 µM
[31] = second compound 10 µM, first compound 0.0316 µM
[32] = second compound 10 µM, first compound 0.1 µM
[33] = second compound 10 µM, first compound 0.316 µM
[34] = second compound 10 µM, first compound 1 µM
[35] = second compound 10 µM, first compound 3.16 µM
[36] = second compound 10 µM, first compound 10 µM
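Further: spheroids exposed to agents for seven days before readout.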
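Wherever viability, T/C is given: percent of vehicle control viability where 100% = DMSO wells.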

C=CC(=O)N1CCN(c2nc(=O)n(-c3c(C)ccnc3C(C)C)c3nc(-c4c(O)cccc4F)c(F)cc23)C(C)C1 (stereo unspecified) + Cc1cnc(CNC(=O)c2c(=O)c3ccc(N4CCCN(C)CC4)nc3n3c2sc2ccccc23)cn1
< 5.00: pIC50 (second compound 0.0316 µM) | pIC50 (second compound 0.1 µM) | pIC50 (second compound 0.316 µM) | pIC50 (second compound 1 µM) | pIC50 (second compound 3.16 µM) | pIC50 (second compound 10 µM)
inactive: viability, T/C [1] 107% | viability, T/C [2] 114% | viability, T/C [3] 115% | viability, T/C [4] 107% | viability, T/C [5] 100% | viability, T/C [6] 91.5% | viability, T/C [7] 101% | viability, T/C [8] 102% | viability, T/C [9] 107% | viability, T/C [10] 124% | viability, T/C [11] 125% | viability, T/C [12] 111% | viability, T/C [13] 103% | viability, T/C [14] 106% | viability, T/C [15] 110% | viability, T/C [16] 89.2% | viability, T/C [17] 124% | viability, T/C [18] 96% | viability, T/C [19] 86.5% | viability, T/C [20] 91% | viability, T/C [21] 88.2% | viability, T/C [22] 91.6% | viability, T/C [23] 100% | viability, T/C [24] 81% | viability, T/C [25] 74.5% | viability, T/C [26] 84% | viability, T/C [27] 89.3% | viability, T/C [28] 81.4% | viability, T/C [29] 89.4% | viability, T/C [30] 76.8% | viability, T/C [31] 74.4% | viability, T/C [32] 74% | viability, T/C [33] 74.7% | viability, T/C [34] 83.4% | viability, T/C [35] 78% | viability, T/C [36] 68.5%

CC(C)n1c(=O)n(C)c2cnc3cc(F)c(-c4ccc(OCCCN5CCCCC5)nc4)cc3c21 + Cc1cnc(CNC(=O)c2c(=O)c3ccc(N4CCCN(C)CC4)nc3n3c2sc2ccccc23)cn1
inactive: viability, T/C [1] 91.3% | viability, T/C [2] 94.1% | viability, T/C [3] 95.3% | viability, T/C [4] 114% | viability, T/C [5] 77.6% | viability, T/C [6] 65.7% | viability, T/C [7] 108% | viability, T/C [8] 107% | viability, T/C [9] 96.1% | viability, T/C [10] 106% | viability, T/C [11] 93.6% | viability, T/C [12] 67.2% | viability, T/C [13] 92.6% | viability, T/C [14] 93% | viability, T/C [15] 88.5% | viability, T/C [16] 108% | viability, T/C [17] 81.2% | viability, T/C [18] 64.2% | viability, T/C [19] 82.5% | viability, T/C [20] 87.1% | viability, T/C [21] 90.5% | viability, T/C [22] 94.6% | viability, T/C [23] 78.5% | viability, T/C [24] 53.1% | viability, T/C [25] 73.2% | viability, T/C [26] 73.4% | viability, T/C [27] 78.8% | viability, T/C [28] 68.3% | viability, T/C [29] 67.8% | viability, T/C [30] 39.9% | viability, T/C [31] 76.1% | viability, T/C [32] 71.1% | viability, T/C [33] 73.8% | viability, T/C [34] 70.8% | viability, T/C [35] 61.7% | viability, T/C [36] 35.3%
5.19: pIC50 (second compound 3.16 µM)
5.28: pIC50 (second compound 10 µM)
< 5.00: pIC50 (second compound 0.0316 µM) | pIC50 (second compound 0.1 µM) | pIC50 (second compound 0.316 µM) | pIC50 (second compound 1 µM)

CC1COCCN1c1cc(-c2ccnn2C)c2ccnc(-c3ccn[nH]3)c2n1 (stereo unspecified) + Cc1cnc(CNC(=O)c2c(=O)c3ccc(N4CCCN(C)CC4)nc3n3c2sc2ccccc23)cn1
5.58: pIC50 (second compound 0.0316 µM)
5.28: pIC50 (second compound 0.1 µM)
6.22: pIC50 (second compound 3.16 µM)
6.14: pIC50 (second compound 10 µM)
5.80: pIC50 (second compound 1 µM)
inactive: viability, T/C [1] 86.4% | viability, T/C [2] 81.4% | viability, T/C [3] 76.3% | viability, T/C [4] 54.9% | viability, T/C [5] 52.8% | viability, T/C [6] 38.5% | viability, T/C [7] 99.4% | viability, T/C [8] 81.1% | viability, T/C [9] 82.4% | viability, T/C [10] 73.5% | viability, T/C [11] 54% | viability, T/C [12] 41.3% | viability, T/C [13] 94.2% | viability, T/C [14] 90.3% | viability, T/C [15] 72.9% | viability, T/C [16] 62.2% | viability, T/C [17] 55.2% | viability, T/C [18] 41.3% | viability, T/C [19] 82.4% | viability, T/C [20] 74.1% | viability, T/C [21] 69.3% | viability, T/C [22] 57.2% | viability, T/C [23] 39.8% | viability, T/C [24] 33.9% | viability, T/C [25] 64.8% | viability, T/C [26] 65.7% | viability, T/C [27] 58.4% | viability, T/C [28] 42.7% | viability, T/C [29] 37.3% | viability, T/C [30] 30.9% | viability, T/C [31] 65.1% | viability, T/C [32] 61.6% | viability, T/C [33] 57.3% | viability, T/C [34] 48.2% | viability, T/C [35] 30.6% | viability, T/C [36] 25.2%
5.39: pIC50 (second compound 0.316 µM)
